In patent publication US4416884A, “Piperazinylbenzoheterocyclic compounds” (Otsuka Pharmaceutical Co., Ltd., priority 1978, dated 1983):
Values after ≈ are worked out from the molar mass of the structure shown. Like-named read-outs stand apart in the source and are kept apart here.

Experiments:
[1] = system: Yersinia enterocolitica 0-5; test: antimicrobial activity, serial dilution method on agar plate; type: cell-based
[2] = inactivation ratio by human serum protein; settings: 3.1 mcg/ml, 37° C.
Method: (§2) A 1/15 mol/l phosphate buffer was added to powder of Moni-Trol 1 (dehydrated preparation of human serum, a product of Midori Juji Co., Ltd.) to prepare a composition having the same serum protein concentration as natural human serum and this preparation was labeled "100% human serum", an aliquot of the "100% human serum" preparation was mixed with the same volume of the above buffer to prepare "50% human serum" and another aliquot was mixed with 4 times as much as its volume of the buffer to prepare "20% human serum".

[3] = system: Klebsiella pneumoniae ST-101; test: antimicrobial activity, serial dilution method on agar plate; type: cell-based
In short: (§1)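 MIC (mcg/ml) read on Heart Infusion agar plates carrying serial compound dilutions. Organisms inoculated at two densities: 1×10^8 cells/ml, set by O.D. 660 mμ=0.07 to 0.16, and a 1×10^6 cells/ml dilution of that suspension.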

[4] = system: Proteus vulgaris IID OX-19; test: as above; type: cell-based; settings: read-out: Minimum Inhibitory Concentration
In short: as §1

[5] = system: Corinebacterium diphteriae; test: as above; type: cell-based
In short: as §1

Klebsiella pneumoniae = test: as above; type: cell-based
In short: as §1

[6] = system: Bacillus subtilis PCI 219; test: as above; type: cell-based
In short: as §1

[7] = system: Pseudomonas aeruginosa NCTC 10490; test: as above; type: cell-based
In short: as §1

[8] = system: Pseudomonas aeruginosa E-2; test: as above; type: cell-based
In short: as §1

[9] = system: Pseudomonas putida IFO 13696; test: as above; type: cell-based
In short: as §1

Shigella Sonnei EW 33 = test: as above; type: cell-based; settings: read-out: Minimum Inhibitory Concentration
In short: as §1

[10] = system: Staphylococcus aureus FDA 209 P; test: as above; type: cell-based
In short: as §1

[11] = system: Serattia marcescens IFO 12648; test: as above; type: cell-based
In short: as §1

Enterobacter cloacae = test: as above; type: cell-based
In short: as §1

[12] = system: Streptococcus pneumoniae Type III; test: as above; type: cell-based
In short: as §1

Proteus rettgeri NIH 96 = test: as above; type: cell-based; settings: Providencia rettgeri
In short: as §1

[13] = system: Streptococcus pyogenes IID Cook; test: as above; type: cell-based
In short: as §1

[14] = system: Streptococcus pneumoniae Type I; test: as above; type: cell-based
In short: as §1

[15] = system: Salmonella typhi 0-901 (NCTC 8393); test: as above; type: cell-based; settings: Salmonella enterica
In short: as §1

[16] = system: Escherichia Coli NIHJ JC-2 (IFO 12734); test: as above; type: cell-based; settings: Escherichia coli, read-out: Minimum Inhibitory Concentration
In short: as §1

[17] = system: Enterobacter aerogenes IFO 12979; test: as above; type: cell-based; settings: Klebsiella aerogenes
In short: as §1

[18] = system: Test Organism 1 (Escherichia Coli NIHJ); test: influence of the addition of horse serum on the MIC; type: cell-based
in vitro = settings: human
Method: as §2

[19] = Yersinia enterocolitica, 05, read-out: Minimum Inhibitory Concentration, inoculum 1 × 10^6 cells/ml
[20] = Yersinia enterocolitica, 05, read-out: Minimum Inhibitory Concentration, inoculum 1 × 10^8 cells/ml
[21] = ST101, read-out: Minimum Inhibitory Concentration, inoculum 1 × 10^6 cells/ml
[22] = ST101, read-out: Minimum Inhibitory Concentration, inoculum 1 × 10^8 cells/ml
[23] = IIDOX19, inoculum 1 × 10^6 cells/ml
[24] = IIDOX19, inoculum 1 × 10^8 cells/ml
[25] = read-out: Minimum Inhibitory Concentration, inoculum 1 × 10^6 cells/ml
[26] = read-out: Minimum Inhibitory Concentration, inoculum 1 × 10^8 cells/ml
[27] = PCI219, read-out: Minimum Inhibitory Concentration, inoculum 1 × 10^6 cells/ml
[28] = PCI219, read-out: Minimum Inhibitory Concentration, inoculum 1 × 10^8 cells/ml
[29] = NCTC10490, read-out: Minimum Inhibitory Concentration, inoculum 1 × 10^6 cells/ml
[30] = NCTC10490, read-out: Minimum Inhibitory Concentration, inoculum 1 × 10^8 cells/ml
[31] = E2, read-out: Minimum Inhibitory Concentration, inoculum 1 × 10^6 cells/ml
[32] = E2, read-out: Minimum Inhibitory Concentration, inoculum 1 × 10^8 cells/ml
[33] = FDA209, read-out: Minimum Inhibitory Concentration, inoculum 1 × 10^6 cells/ml
[34] = FDA209, read-out: Minimum Inhibitory Concentration, inoculum 1 × 10^8 cells/ml
[35] = NIH96, read-out: Minimum Inhibitory Concentration, inoculum 1 × 10^6 cells/ml
[36] = NIH96, read-out: Minimum Inhibitory Concentration, inoculum 1 × 10^8 cells/ml
[37] = IFO12979, read-out: Minimum Inhibitory Concentration, inoculum 1 × 10^6 cells/ml
[38] = IFO12979, read-out: Minimum Inhibitory Concentration, inoculum 1 × 10^8 cells/ml

Structure (SMILES): CC1CCc2c(N3CCNCC3)ccc3c(=O)c(C(=O)O)cn1c23 (centres unmarked) [A]
- MIC [1, 19]: 0.8 µg/mL (≈ 2.44 µM)
- MIC [1, 20]: 0.8 µg/mL (≈ 2.44 µM)
- fraction unbound at 2 h ([2]; 10% human serum): 0.918
- fraction unbound at 2 h ([2]; 20% human serum): 1
- fraction unbound at 2 h ([2]; 100% human serum): 1
- MIC [3, 21]: 0.2 µg/mL (≈ 0.611 µM)
- MIC [3, 22]: 0.4 µg/mL (≈ 1.22 µM)
- MIC [4, 23]: 0.8 µg/mL (≈ 2.44 µM)
- MIC [4, 24]: 1.6 µg/mL (≈ 4.89 µM)
- MIC [5, 25]: 1.6 µg/mL (≈ 4.89 µM)
- MIC [5, 26]: 1.6 µg/mL (≈ 4.89 µM)
- MIC (Klebsiella pneumoniae; [25]): 1.6 µg/mL (≈ 4.89 µM)
- MIC (Klebsiella pneumoniae; [26]): 1.6 µg/mL (≈ 4.89 µM)
- MIC [6, 27]: 0.8 µg/mL (≈ 2.44 µM)
- MIC [6, 28]: 0.8 µg/mL (≈ 2.44 µM)
- MIC [7, 29]: 3.1 µg/mL (≈ 9.47 µM)
- MIC [7, 30]: 6.3 µg/mL (≈ 19.2 µM)
- MIC [8, 31]: 6.3 µg/mL (≈ 19.2 µM)
- MIC [8, 32]: 12.5 µg/mL (≈ 38.2 µM)
- MIC ([9]; IFO13696, read-out: Minimum Inhibitory Concentration, inoculum 1 × 10^6 cells/ml): 1.6 µg/mL (≈ 4.89 µM)
- MIC ([9]; IFO13696, read-out: Minimum Inhibitory Concentration, inoculum 1 × 10^8 cells/ml): 3.1 µg/mL (≈ 9.47 µM)
- MIC (Shigella Sonnei EW 33; inoculum 1 × 10^6 cells/ml): 0.4 µg/mL (≈ 1.22 µM)
- MIC (Shigella Sonnei EW 33; inoculum 1 × 10^8 cells/ml): 0.8 µg/mL (≈ 2.44 µM)
- MIC [10, 33]: 3.1 µg/mL (≈ 9.47 µM)
- MIC [10, 34]: 6.3 µg/mL (≈ 19.2 µM)
- MIC [11, 25]: 1.6 µg/mL (≈ 4.89 µM)
- MIC [11, 26]: 3.1 µg/mL (≈ 9.47 µM)
- MIC (Enterobacter cloacae; [25]): 0.8 µg/mL (≈ 2.44 µM)
- MIC (Enterobacter cloacae; [26]): 0.8 µg/mL (≈ 2.44 µM)
- MIC [12, 25]: 12.5 µg/mL (≈ 38.2 µM)
- MIC [12, 26]: 25 µg/mL (≈ 76.4 µM)
- MIC (Proteus rettgeri NIH 96; [35]): 0.4 µg/mL (≈ 1.22 µM)
- MIC (Proteus rettgeri NIH 96; [36]): 0.4 µg/mL (≈ 1.22 µM)
- MIC [13, 25]: 12.5 µg/mL (≈ 38.2 µM)
- MIC [13, 26]: 25 µg/mL (≈ 76.4 µM)
- MIC [14, 25]: 3.1 µg/mL (≈ 9.47 µM)
- MIC [14, 26]: 12.5 µg/mL (≈ 38.2 µM)
- MIC ([15]; inoculum 1 × 10^6 cells/ml, read-out: Minimum Inhibitory Concentration): 0.2 µg/mL (≈ 0.611 µM)
- MIC ([15]; inoculum 1 × 10^8 cells/ml, read-out: Minimum Inhibitory Concentration): 0.4 µg/mL (≈ 1.22 µM)
- MIC [16]: 1.6 µg/mL (≈ 4.89 µM)
- MIC [17, 37]: 0.8 µg/mL (≈ 2.44 µM)
- MIC [17, 38]: 0.8 µg/mL (≈ 2.44 µM)
- MIC ([18]; read-out: Minimum Inhibitory Concentration, horse serum 0%, inoculum 10^6): 6.3 µg/mL (≈ 19.2 µM)
- MIC ([18]; read-out: Minimum Inhibitory Concentration, horse serum 0%, inoculum 10^8): 6.3 µg/mL (≈ 19.2 µM)
- MIC ([18]; read-out: Minimum Inhibitory Concentration, horse serum 10%, inoculum 10^6): 3.1 µg/mL (≈ 9.47 µM)
- MIC ([18]; read-out: Minimum Inhibitory Concentration, horse serum 10%, inoculum 10^8): 6.3 µg/mL (≈ 19.2 µM)
- MIC ([18]; read-out: Minimum Inhibitory Concentration, horse serum 20%, inoculum 10^6): 3.1 µg/mL (≈ 9.47 µM)
- MIC ([18]; read-out: Minimum Inhibitory Concentration, horse serum 20%, inoculum 10^8): 3.1 µg/mL (≈ 9.47 µM)
- MIC ([18]; read-out: Minimum Inhibitory Concentration, horse serum 40%, inoculum 10^6): 3.1 µg/mL (≈ 9.47 µM)
- MIC ([18]; read-out: Minimum Inhibitory Concentration, horse serum 40%, inoculum 10^8): 3.1 µg/mL (≈ 9.47 µM)

Structure (SMILES): CCn1cc(C(=O)O)c(=O)c2ccc(C)nc21 [E]
- MIC [1, 19]: 1.6 µg/mL (≈ 6.89 µM)
- MIC [1, 20]: 3.1 µg/mL (≈ 13.3 µM)
- fraction unbound at 2 h (in vitro; 10% human serum): 0.528
- fraction unbound at 2 h (in vitro; 10% human serum, Inactivation Ratio): 0.587
- fraction unbound at 2 h (in vitro; 20% human serum): 0.608
- fraction unbound at 2 h (in vitro; 20% human serum, Inactivation Ratio): 0.565
- fraction unbound at 2 h (in vitro; 50% human serum): 0.376
- fraction unbound at 2 h (in vitro; 50% human serum, Inactivation Ratio): 0.387
- fraction unbound at 2 h (in vitro; 100% human serum): 0.24
- fraction unbound at 2 h (in vitro; 100% human serum, Inactivation Ratio): 0.387
- MIC [3, 21]: 1.6 µg/mL (≈ 6.89 µM)
- MIC [3, 22]: 1.6 µg/mL (≈ 6.89 µM)
- MIC [4, 23]: 3.1 µg/mL (≈ 13.3 µM)
- MIC [4, 24]: 3.1 µg/mL (≈ 13.3 µM)
- MIC [5, 25]: > 100 µg/mL
- MIC [5, 26]: > 100 µg/mL
- MIC (Klebsiella pneumoniae; [25]): 3.1 µg/mL (≈ 13.3 µM)
- MIC (Klebsiella pneumoniae; [26]): 3.1 µg/mL (≈ 13.3 µM)
- MIC [6, 27]: 3.1 µg/mL (≈ 13.3 µM)
- MIC [6, 28]: 6.3 µg/mL (≈ 27.1 µM)
- MIC [7, 29]: > 100 µg/mL
- MIC [7, 30]: > 100 µg/mL
- MIC [8, 31]: > 100 µg/mL
- MIC [8, 32]: > 100 µg/mL
- MIC ([9]; IFO13696, inoculum 1 × 10^6 cells/ml, read-out: Minimum Inhibitory Concentration): 50 µg/mL (≈ 215 µM)
- MIC ([9]; IFO13696, inoculum 1 × 10^8 cells/ml, read-out: Minimum Inhibitory Concentration): 100 µg/mL (≈ 431 µM)
- MIC (Shigella Sonnei EW 33; inoculum 1 × 10^6 cells/ml): 3.1 µg/mL (≈ 13.3 µM)
- MIC (Shigella Sonnei EW 33; inoculum 1 × 10^8 cells/ml): 3.1 µg/mL (≈ 13.3 µM)
- MIC [10, 33]: 50 µg/mL (≈ 215 µM)
- MIC [10, 34]: 50 µg/mL (≈ 215 µM)
- MIC [11, 25]: 3.1 µg/mL (≈ 13.3 µM)
- MIC [11, 26]: 3.1 µg/mL (≈ 13.3 µM)
- MIC (Enterobacter cloacae; [25]): 3.1 µg/mL (≈ 13.3 µM)
- MIC (Enterobacter cloacae; [26]): 3.1 µg/mL (≈ 13.3 µM)
- MIC [12, 25]: > 100 µg/mL
- MIC [12, 26]: > 100 µg/mL
- MIC (Proteus rettgeri NIH 96; [35]): 0.8 µg/mL (≈ 3.44 µM)
- MIC (Proteus rettgeri NIH 96; [36]): 1.6 µg/mL (≈ 6.89 µM)
- MIC [13, 25]: > 100 µg/mL
- MIC [13, 26]: > 100 µg/mL
- MIC [14, 25]: > 100 µg/mL
- MIC [14, 26]: > 100 µg/mL
- MIC [15, 25]: 3.1 µg/mL (≈ 13.3 µM)
- MIC [15, 26]: 3.1 µg/mL (≈ 13.3 µM)
- MIC ([16]; inoculum 1 × 10^6 cells/ml): 3.1 µg/mL (≈ 13.3 µM)
- MIC ([16]; inoculum 1 × 10^8 cells/ml): 3.1 µg/mL (≈ 13.3 µM)
- MIC [17, 37]: 3.1 µg/mL (≈ 13.3 µM)
- MIC [17, 38]: 6.3 µg/mL (≈ 27.1 µM)
